Each structure is given as a SMILES string. Activity calls are given as the source filed them. The calls are words filed in the database; no cut-off is given here.

The test system of series [1] is Mus musculus. Briefly: Antiinflammatory activity against LPS-induced […] C57BL/6 mouse model assessed as reduction in IL-1beta mRNA expression in lung at 5 to 25 mg/kg, ip incubated for 24 hrs by RT-PCR analysis. It counts as functional, organism-based. To be noted: dose 5-25 mg/kg.
In series [2] the test system is RAW264.7. The series is described as follows: Antiinflammatory activity against LPS-induced mouse RAW264.7 cells assessed as decrease in IL-1beta mRNA expression at 10 uM incubated for 8 hrs by RT-PCR analysis. It counts as functional, cell-based.
The subject of series [3] is Mus musculus. Briefly: Antiinflammatory activity against LPS-induced […] C57BL/6 mouse model assessed as reduction in TNF-alpha mRNA expression in lung at 5 to 25 mg/kg, ip incubated for 24 hrs by RT-PCR analysis. It counts as functional, organism-based. As to conditions: dose 5-25 mg/kg.
The subject of series [4] is RAW264.7. The series is described as follows: Antiinflammatory activity against LPS-induced mouse RAW264.7 cells assessed as decrease in IL-6 mRNA expression incubated for 8 hrs by RT-PCR analysis. It counts as functional, cell-based. To be noted: dose <= 20.0 µM.
Series [5] deals with RAW264.7. The series is described as follows: Antiinflammatory activity against LPS-induced mouse RAW264.7 cells assessed as inhibition of NO release incubated for 8 hrs […]. It counts as functional, cell-based. To be noted: dose <= 20.0 µM.
Series [6] has as its system RAW264.7. Briefly: Antiinflammatory activity against LPS-induced mouse RAW264.7 cells assessed as decrease in nuclear translocation incubated for 8 hrs by Western blot analysis. It counts as functional, cell-based. To be noted: dose <= 20.0 µM. In general terms: A western blot detects proteins with antibodies after separation by electrophoresis.
Series [7] deals with RAW264.7. The series is described as follows: Antiinflammatory activity against LPS-induced mouse RAW264.7 cells assessed as downregulation of PI3K level incubated for 8 hrs by Western blot analysis. Type of series: functional, cell-based. To be noted: dose <= 20.0 µM.
Series [8] relates to Mus musculus. The series is described as follows: Antiinflammatory activity against LPS-induced […] C57BL/6 mouse model assessed as reduction in IL-6 mRNA expression in lung at 5 to 25 mg/kg, ip incubated for 24 hrs by RT-PCR analysis. To be noted: dose 5-25 mg/kg. It counts as functional, organism-based.
The subject of series [9] is RAW264.7. The series is described as follows: Antiinflammatory activity against LPS-induced mouse RAW264.7 cells assessed as suppression of iNOS mRNA expression incubated for 8 hrs by RT-PCR analysis. As to conditions: dose <= 20.0 µM. Type of series: functional, cell-based.
Series [10] relates to RAW264.7. The series is described as follows: Antiinflammatory activity against mouse RAW264.7 cells assessed as reduction in LPS-induced ROS production incubated for 8 hrs by DCFH-DA staining based flow cytometry analysis. As to conditions: dose <= 20.0 µM. Type of series: functional, cell-based. A general note: In flow cytometry, cells or beads pass a laser one at a time.

Series [11] deals with RAW264.7. The series is described as follows: Antiinflammatory activity against LPS-induced mouse RAW264.7 cells assessed as decrease in TNF-alpha mRNA expression incubated for 8 hrs by RT-PCR analysis. As to conditions: dose <= 20.0 µM. Type of series: functional, cell-based.
Series [12] has as its system RAW264.7. Briefly: Antiinflammatory activity against LPS-induced mouse RAW264.7 cells assessed as downregulation of total AKT level incubated for 8 hrs by Western blot analysis. As to conditions: dose <= 20.0 µM. It counts as functional, cell-based.
The test system of series [13] is RAW264.7. Briefly: Antiinflammatory activity against LPS-induced mouse RAW264.7 cells transfected with AKT shRNA assessed as decrease in IL-1beta expression incubated for 8 hrs by Western blot analysis. As to conditions: dose <= 20.0 µM. Type of series: functional, cell-based.
Series [14] deals with RAW264.7. The series is described as follows: Antiinflammatory activity against LPS-induced mouse RAW264.7 cells assessed as decrease in IkappaBalpha level incubated for 8 hrs by DAPI staining based immunofluorescence analysis. It counts as functional, cell-based. To be noted: dose <= 20.0 µM.
For series [15], the system named is RAW264.7. Briefly: Antiinflammatory activity against LPS-induced mouse RAW264.7 cells assessed as decrease in IL-1beta mRNA expression incubated for 8 hrs by RT-PCR analysis. It counts as functional, cell-based. As to conditions: dose <= 20.0 µM.
The test system of series [16] is RAW264.7. Briefly: Antiinflammatory activity against LPS-induced mouse RAW264.7 cells assessed as decrease in NF-kappaB level incubated for 8 hrs by DAPI staining based immunofluorescence analysis. It counts as functional, cell-based. To be noted: dose <= 20.0 µM.
For series [17], the system named is RAW264.7. The series is described as follows: Antiinflammatory activity against LPS-induced mouse RAW264.7 cells assessed as downregulation of AKT level incubated for 8 hrs by Western blot analysis. Type of series: functional, cell-based. As to conditions: dose <= 20.0 µM.
For series [18], the system named is Mus musculus. The series is described as follows: In vivo inhibition of PI3K-AKT phosphorylation in LPS-induced […] C57BL/6 mouse model at 5 to 25 mg/kg, ip measured for 24 hrs by Western blot analysis. To be noted: dose 5-25 mg/kg. It counts as functional, organism-based.
Series [19] relates to RAW264.7. The series is described as follows: Antiinflammatory activity against LPS-induced mouse RAW264.7 cells assessed as decrease in IL-6 mRNA expression at 10 uM incubated for 8 hrs by RT-PCR analysis. Type of series: functional, cell-based.
The subject of series [20] is RAW264.7. The series is described as follows: Antiinflammatory activity against LPS-induced mouse RAW264.7 cells assessed as decrease in TNF-alpha mRNA expression at 10 uM incubated for 8 hrs by RT-PCR analysis. It counts as functional, cell-based.
Series [21] relates to RAW264.7. The series is described as follows: Antiinflammatory activity against LPS-induced mouse RAW264.7 cells assessed as decrease in IkappaBalpha level incubated for 8 hrs by Western blot analysis. To be noted: dose <= 20.0 µM. It counts as functional, cell-based.
The test system of series [22] is Mus musculus. The series is described as follows: Antiinflammatory activity against LPS-induced […] C57BL/6 mouse model assessed as reduction in lung injury score at 5 to 25 mg/kg, ip incubated for 24 hrs by H and E staining based analysis. It counts as functional, organism-based. As to conditions: dose 5-25 mg/kg.
Series [23] relates to RAW264.7. The series is described as follows: Antiinflammatory activity against LPS-induced mouse RAW264.7 cells assessed as decrease in nuclear translocation incubated for 8 hrs by DAPI staining based immunofluorescence analysis. It counts as functional, cell-based. To be noted: dose <= 20.0 µM.
The test system of series [24] is RAW264.7. The series is described as follows: Antiinflammatory activity against LPS-induced mouse RAW264.7 cells transfected with AKT shRNA assessed as decrease in IL-6 expression incubated for 8 hrs by Western blot analysis. It counts as functional, cell-based. As to conditions: dose <= 20.0 µM.
Series [25] relates to RAW264.7. Briefly: Antiinflammatory activity against LPS-induced mouse RAW264.7 cells assessed as downregulation of total PI3K level incubated for 8 hrs by Western blot analysis. To be noted: dose <= 20.0 µM. It counts as functional, cell-based.
Series [26] concerns Mus musculus. The series is described as follows: Antiinflammatory activity against LPS-induced […] in ip dosed C57BL/6 mouse model assessed as increase in SOD level in serum incubated for 24 hrs. To be noted: dose 5-25 mg/kg. It counts as functional, organism-based.
The test system of series [27] is RAW264.7. The series is described as follows: Antiinflammatory activity against LPS-induced mouse RAW264.7 cells assessed as decrease in NF-kappaB level incubated for 8 hrs by Western blot analysis. As to conditions: dose <= 20.0 µM. It counts as functional, cell-based.
Series [28] relates to Mus musculus. The series is described as follows: Antiinflammatory activity against LPS-induced […] in ip dosed C57BL/6 mouse model assessed as reduction in MDA level in serum incubated for 24 hrs. It counts as functional, organism-based. As to conditions: dose 5-25 mg/kg.
Series [29] has as its system RAW264.7. The series is described as follows: Antiinflammatory activity against LPS-induced mouse RAW264.7 cells transfected with AKT shRNA assessed as decrease in TNF-alpha expression incubated for 8 hrs by Western blot analysis. To be noted: dose <= 20.0 µM. It counts as functional, cell-based.
Series [30] has as its system Mus musculus. The series is described as follows: In vivo inhibition of PI3K-AKT phosphorylation in LPS-induced […] C57BL/6 mouse model at 5 to 25 mg/kg, ip measured for 24 hrs by Immunohistochemistry analysis. Type of series: functional, organism-based. To be noted: dose 5-25 mg/kg.
For series [31], the system named is Mus musculus. Briefly: Antiinflammatory activity against LPS-induced […] C57BL/6 mouse model assessed as reduction IkappaBalpha level in lung at 5 to 25 mg/kg, ip incubated for 24 hrs by Western blot analysis. It counts as functional, organism-based. As to conditions: dose 5-25 mg/kg.
Series [32] relates to RAW264.7. The series is described as follows: Cytotoxicity against mouse RAW264.7 cells assessed as reduction in cell viability at 60 uM measured after 24 hrs by MTT assay. To be noted: raw264.7, 24 h. Type of series: toxicity, cell-based. On the technique in general: Tetrazolium assays rely on reduction of a dye to a coloured formazan, in cell work by metabolically active cells.

Turning to `COc1c(C(C)C)cc2c(=O)cc3c(cc2c1OC)C=CC(=O)C3(C)C`, the result with Mus musculus [1], in the series on RAW264.7 [2], in the series on Mus musculus [3], in the series with Mus musculus [8], with RAW264.7 [19] and in the series on RAW264.7 [20] was Active. In addition, the outcome with Mus musculus [22] and with Mus musculus [31] was Active. Further, the Activity entry with RAW264.7 [4], with RAW264.7 [5], with RAW264.7 [6], in the series with RAW264.7 [7], in the series with RAW264.7 [9] and in the series on RAW264.7 [10] was “Dose-Dependent Effect” in each case. In addition, the Activity entry in the series on RAW264.7 [11], with RAW264.7 [12], in the series on RAW264.7 [13], with RAW264.7 [14], in the series on RAW264.7 [15] and with RAW264.7 [16] was “Dose-Dependent Effect” each time. Besides, the Activity entry in the series with RAW264.7 [17], with RAW264.7 [21], in the series on RAW264.7 [23], in the series on RAW264.7 [24], in the series with RAW264.7 [25] and in the series on Mus musculus [26] was “Dose-Dependent Effect” in each case. For the same compound, the Activity result with RAW264.7 [27], in the series with Mus musculus [28] and in the series with RAW264.7 [29] was “Dose-Dependent Effect” each time. For the same compound, the inhibition result in the series on Mus musculus [18] and with Mus musculus [30] was “Active” each time.

Turning to `CC(C)c1cc2c(c(O)c1O)C=C1C=CC(=O)C(C)(C)C1CC2=O` (configuration not stated), the Activity result in the series with RAW264.7 [32] is recorded as “Toxic”.

Turning to `CC(C)c1cc2c(c3c1OC(C)(C)O3)C=C1C=CC(=O)C(C)(C)C1=CC2`, the Activity entry in the series with RAW264.7 [32] was “Toxic”.

Turning to `COc1c(C(C)C)cc2c(=O)cc3c(cc2c1OC)C=CC(O)C3(C)C` (configuration not stated), the Activity result with RAW264.7 [32] is listed as “Toxic”.

As for `C[C@@H]1C[C@H]2[C@@H]3CCC4=CC(=O)C=C[C@]4(C)[C@@]3(F)[C@@H](O)C[C@]2(C)[C@@]1(O)C(=O)CO`, the outcome in the series on RAW264.7 [2], in the series with RAW264.7 [19] and with RAW264.7 [20] was Active.

Values taken from ChEMBL document CHEMBL5625256, “Rapid access to icetexane diterpenes: Their protective effects against lipopolysaccharides-induced acute lung injury via PI3K/AKT/NF-κB axis in macrophages” (Eur J Med Chem, 2023).
